From patent US8304419B2, “Chemical compounds” (priority 2007, dated 2012)
Where a name gives a salt, the structure may show the parent alone.

Test system: HIV wild type (WTRVA)
Assay: HeLa cell assay, wild type virus (WTRVA)
Assay type: cell-based, HIV-1
Set-up: scale not given here
Details: Human immunodeficiency virus 1, HeLa, HeLa-CD4-LTR-β-gal cells, wild type virus; read-out: WTRVA activity level

Row | Compound | IC50 [nM]
1 | CC(=O)c1ccc2cc(C(=O)NCc3ccc(Cl)c(Oc4cc(Cl)cc(C#N)c4)c3F)[nH]c2c1 [Example 78, 6-acetyl-N-({4-chloro-3-[(3-chloro-5-cyanophenyl)oxy]-2-fluorophenyl}methyl)-1H-indole-2-carboxamide trifluoroacetate] | < 10
2 | N#Cc1cc(Cl)cc(Oc2c(Cl)ccc(CNC(=O)c3cc4ccc(C#N)cc4[nH]3)c2F)c1 [Example 79, N-({4-chloro-3-[(3-chloro-5-cyanophenyl)oxy]-2-fluorophenyl}methyl)-6-cyano-1H-indole-2-carboxamide trifluoroacetate] | < 10
3 | CC(=O)c1ccc2[nH]c(C(=O)NCc3ccc(Cl)c(Oc4cc(Cl)cc(C#N)c4)c3F)cc2c1 [Example 80, 5-acetyl-N-({4-chloro-3-[(3-chloro-5-cyanophenyl)oxy]-2-fluorophenyl}methyl)-1H-indole-2-carboxamide trifluoroacetate] | < 10
4 | CCc1c(C(=O)NCc2ccc(Cl)c(Oc3cc(Cl)cc(C#N)c3)c2F)[nH]c2ccc(OC)cc12 [Example 81, N-({4-chloro-3-[(3-chloro-5-cyanophenyl)oxy]-2-fluorophenyl}methyl)-3-ethyl-5-(methyloxy)-1H-indole-2-carboxamide trifluoroacetate] | 10 to 1000
5 | COc1n[n+]([O-])cc2cc(C(=O)NCc3ccc(Cl)c(Oc4cc(Cl)cc(C#N)c4)c3F)[nH]c12 [Example 82, N-({4-chloro-3-[(3-chloro-5-cyanophenyl)oxy]-2-fluorophenyl}methyl)-7-(methyloxy)-1H-pyrrolo[2,3-d]pyridazine-2-carboxamide 5-oxide trifluoroacetate] | 10 to 1000
6 | N#Cc1cc(Cl)cc(Oc2c(Cl)ccc(CNC(=O)c3cn(C(c4ccccc4)(c4ccccc4)c4ccccc4)cn3)c2F)c1 [Example 83, N-({4-chloro-3-[(3-chloro-5-cyanophenyl)oxy]-2-fluorophenyl}methyl)-1-(triphenylmethyl)-1H-imidazole-4-carboxamide] | > 1000
7 | N#Cc1cc(Cl)cc(Oc2c(Cl)ccc(CNC(=O)c3c[nH]cn3)c2F)c1 [Example 84, N-({4-chloro-3-[(3-chloro-5-cyanophenyl)oxy]-2-fluorophenyl}methyl)-1H-imidazole-4-carboxamide trifluoroacetate] | < 10
8 | N#Cc1cc(Cl)cc(Oc2c(Cl)ccc(CNC(=O)c3ccccn3)c2F)c1 [Example 85, N-({4-chloro-3-[(3-chloro-5-cyanophenyl)oxy]-2-fluorophenyl}methyl)-2] | < 10
9 | CSc1ncccc1C(=O)NCc1ccc(Cl)c(Oc2cc(Cl)cc(C#N)c2)c1F [Example 86, N-({4-chloro-3-[(3-chloro-5-cyanophenyl)oxy]-2-fluorophenyl}methyl)-2-(methylthio)-3-pyridinecarboxamide trifluoroacetate] | 10 to 1000
10 | N#Cc1cc(Cl)cc(Oc2c(Cl)ccc(CNC(=O)c3cnccn3)c2F)c1 [Example 87, N-({4-chloro-3-[(3-chloro-5-cyanophenyl)oxy]-2-fluorophenyl}methyl)-2-pyrazinecarboxamide trifluoroacetate] | < 10
11 | N#Cc1cc(Cl)cc(Oc2c(Cl)ccc(CNC(=O)c3csc(-c4ccncc4)n3)c2F)c1 [Example 88, N-({4-chloro-3-[(3-chloro-5-cyanophenyl)oxy]-2-fluorophenyl}methyl)-2-(4-pyridinyl)-1,3-thiazole-4-carboxamide trifluoroacetate] | 10 to 1000
12 | N#Cc1cc(Cl)cc(Oc2c(Cl)ccc(CNC(=O)c3ccncc3)c2F)c1 [Example 89, N-({4-chloro-3-[(3-chloro-5-cyanophenyl)oxy]-2-fluorophenyl}methyl)-4-pyridinecarboxamide trifluoroacetate] | 10 to 1000
13 | N#Cc1cc(Cl)cc(Oc2c(Cl)ccc(CNC(=O)c3csnn3)c2F)c1 [Example 90, N-({4-chloro-3-[(3-chloro-5-cyanophenyl)oxy]-2-fluorophenyl}methyl)-1,2,3-thiadiazole-4-carboxamide] | < 10
14 | Cc1nnsc1C(=O)NCc1ccc(Cl)c(Oc2cc(Cl)cc(C#N)c2)c1F [Example 91, N-({4-chloro-3-[(3-chloro-5-cyanophenyl)oxy]-2-fluorophenyl}methyl)-4-methyl-1,2,3-thiadiazole-5-carboxamide] | < 10
15 | CS(=O)(=O)c1ccc(C(=O)NCc2ccc(Cl)c(Oc3cc(Cl)cc(C#N)c3)c2F)cc1 [Example 92, N-({4-chloro-3-[(3-chloro-5-cyanophenyl)oxy]-2-fluorophenyl}methyl)-4-(methylsulfonyl)benzamide] | 10 to 1000
16 | N#Cc1cc(Cl)cc(Oc2c(Cl)ccc(CNC(=O)c3ccno3)c2F)c1 [Example 93, N-({4-chloro-3-[(3-chloro-5-cyanophenyl)oxy]-2-fluorophenyl}methyl)-5-isoxazolecarboxamide] | 10 to 1000
17 | N#Cc1cc(Cl)cc(Oc2c(Cl)ccc(CNC(=O)c3cccnc3)c2F)c1 [Example 94, N-({4-chloro-3-[(3-chloro-5-cyanophenyl)oxy]-2-fluorophenyl}methyl)-3-pyridinecarboxamide trifluoroacetate] | 10 to 1000

Row | Compound | IC50 [nM]
18 | N#Cc1cc(Cl)cc(Oc2c(Cl)ccc(CNC(=O)c3cc[nH]n3)c2F)c1 [Example 95, N-({4-chloro-3-[(3-chloro-5-cyanophenyl)oxy]-2-fluorophenyl}methyl)-1H-pyrazole-3-carboxamide] | 10 to 1000
19 | Cc1nn(-c2ccccc2)nc1C(=O)NCc1ccc(Cl)c(Oc2cc(Cl)cc(C#N)c2)c1F [Example 96, N-({4-chloro-3-[(3-chloro-5-cyanophenyl)oxy]-2-fluorophenyl}methyl)-5-methyl-2-phenyl-2H-1,2,3-triazole-4-carboxamide trifluoroacetate] | 10 to 1000
20 | Cc1nc2ccccn2c1C(=O)NCc1ccc(Cl)c(Oc2cc(Cl)cc(C#N)c2)c1F [Example 97, N-({4-chloro-3-[(3-chloro-5-cyanophenyl)oxy]-2-fluorophenyl}methyl)-2-methylimidazo[1,2-a]pyridine-3-carboxamide trifluoroacetate] | < 10
21 | N#Cc1cc(Cl)cc(Oc2c(Cl)ccc(CNC(=O)c3csc(-c4cccnc4)n3)c2F)c1 [Example 98, N-({4-chloro-3-[(3-chloro-5-cyanophenyl)oxy]-2-fluorophenyl}methyl)-2-(3-pyridinyl)-1,3-thiazole-4-carboxamide trifluoroacetate] | < 10
22 | N#Cc1cc(Cl)cc(Oc2c(Cl)ccc(CNC(=O)c3snnc3-c3ccccc3)c2F)c1 [Example 99, N-({4-chloro-3-[(3-chloro-5-cyanophenyl)oxy]-2-fluorophenyl}methyl)-4-phenyl-1,2,3-thiadiazole-5-carboxamide] | > 1000
23 | N#Cc1cc(Cl)cc(Oc2c(Cl)ccc(CNC(=O)c3cn[nH]c3)c2F)c1 [Example 100, N-({4-chloro-3-[(3-chloro-5-cyanophenyl)oxy]-2-fluorophenyl}methyl)-1H-pyrazole-4-carboxamide trifluoroacetate] | < 10
24 | CSc1ncc(Cl)c(C(=O)NCc2ccc(Cl)c(Oc3cc(Cl)cc(C#N)c3)c2F)n1 [Example 101, 5-chloro-N-({4-chloro-3-[(3-chloro-5-cyanophenyl)oxy]-2-fluorophenyl}methyl)-2-(methylthio)-4-pyrimidinecarboxamide] | 10 to 1000
25 | CN(C)CCCOc1ccc2[nH]c(C(=O)NCc3ccc(Cl)c(Oc4cc(Cl)cc(C#N)c4)c3F)cc2c1 [Example 102, N-({4-chloro-3-[(3-chloro-5-cyanophenyl)oxy]-2-fluorophenyl}methyl)-5-{[3-(dimethylamino)propyl]oxy}-1H-indole-2-carboxamide] | < 10
26 | N#Cc1cc(Cl)cc(Oc2c(Cl)ccc(CNC(=O)c3cc4cc(OCCN5CCOCC5)ccc4[nH]3)c2F)c1 [Example 103, N-({4-chloro-3-[(3-chloro-5-cyanophenyl)oxy]-2-fluorophenyl}methyl)-5-{[2-(4-morpholinyl)ethyl]oxy}-1H-indole-2-carboxamide] | < 10
27 | CN1CCCC1CCOc1ccc2[nH]c(C(=O)NCc3ccc(Cl)c(Oc4cc(Cl)cc(C#N)c4)c3F)cc2c1 (stereo not drawn) [Example 104, N-({4-chloro-3-[(3-chloro-5-cyanophenyl)oxy]-2-fluorophenyl}methyl)-5-{[2-(1-methyl-2-pyrrolidinyl)ethyl]oxy}-1H-indole-2-carboxamide] | < 10
28 | CN(C)CCOc1ccc2[nH]c(C(=O)NCc3ccc(Cl)c(Oc4cc(Cl)cc(C#N)c4)c3F)cc2c1 [Example 105, N-({4-chloro-3-[(3-chloro-5-cyanophenyl)oxy]-2-fluorophenyl}methyl)-5-{[2-(dimethylamino)ethyl]oxy}-1H-indole-2-carboxamide] | < 10
29 | CC(O)CCOc1ccc2[nH]c(C(=O)NCc3ccc(Cl)c(Oc4cc(Cl)cc(C#N)c4)c3F)cc2c1 (stereo not drawn) [Example 106, N-({4-chloro-3-[(3-chloro-5-cyanophenyl)oxy]-2-fluorophenyl}methyl)-5-[(3-hydroxybutyl)oxy]-1H-indole-2-carboxamide] | < 10
30 | N#Cc1cc(Cl)cc(Oc2c(Cl)ccc(CNC(=O)c3cc4cc(OCC[C@H](O)CO)ccc4[nH]3)c2F)c1 [Example 107, N-({4-chloro-3-[(3-chloro-5-cyanophenyl)oxy]-2-fluorophenyl}methyl)-5-{[(3S)-3,4-dihydroxybutyl]oxy}-1H-indole-2-carboxamide] | < 10
31 | Cc1cccc2cc(C(=O)NCc3ccc(Cl)c(Oc4cc(Cl)cc(C#N)c4)c3F)[nH]c12 [Example 108, N-({4-chloro-3-[(3-chloro-5-cyanophenyl)oxy]-2-fluorophenyl}methyl)-7-methyl-1H-indole-2-carboxamide] | 10 to 1000
32 | N#Cc1cc(Cl)cc(Oc2c(Cl)ccc(CNC(=O)c3cc4cc(Cl)ccc4[nH]3)c2F)c1 [Example 109, 5-chloro-N-({4-chloro-3-[(3-chloro-5-cyanophenyl)oxy]-2-fluorophenyl}methyl)-1H-indole-2-carboxamide] | 10 to 1000
33 | N#Cc1cc(Cl)cc(Oc2c(Cl)ccc(CNC(=O)c3cc4ccc(Cl)cc4[nH]3)c2F)c1 [Example 110, 6-chloro-N-({4-chloro-3-[(3-chloro-5-cyanophenyl)oxy]-2-fluorophenyl}methyl)-1H-indole-2-carboxamide] | 10 to 1000
